Like-named read-outs stand apart in the source and are kept apart here.
How the values were obtained:
Assay in all cases: biochemical
Parameters in all cases: Thermal shift (DSF, SYPRO Orange) Tm shift of recombinant kinase domains at 10 uM compound
NEK7 = NEK7 (Homo sapiens, UniProt Q8TDX7)
p38d = biological target: T1, p38d (Homo sapiens, UniProt O15264)
T1 construct: gene MAPK13
T1 sequence (O15264 1-365): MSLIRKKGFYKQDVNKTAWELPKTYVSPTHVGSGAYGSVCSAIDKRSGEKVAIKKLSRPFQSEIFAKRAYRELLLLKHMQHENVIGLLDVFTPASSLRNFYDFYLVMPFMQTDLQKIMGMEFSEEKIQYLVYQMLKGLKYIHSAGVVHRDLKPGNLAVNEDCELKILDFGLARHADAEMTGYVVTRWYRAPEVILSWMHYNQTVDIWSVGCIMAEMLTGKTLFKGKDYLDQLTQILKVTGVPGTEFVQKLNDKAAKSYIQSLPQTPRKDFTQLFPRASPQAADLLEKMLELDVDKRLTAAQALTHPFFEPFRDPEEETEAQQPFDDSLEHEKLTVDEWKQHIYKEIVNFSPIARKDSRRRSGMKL

RSK1_b = biological target: T2, RSK1_b (Homo sapiens, UniProt Q15418)
T2 construct: gene RPS6KA1; second (C-terminal) kinase domain
T2 sequence (Q15418 whole entry, the tested form may be a part): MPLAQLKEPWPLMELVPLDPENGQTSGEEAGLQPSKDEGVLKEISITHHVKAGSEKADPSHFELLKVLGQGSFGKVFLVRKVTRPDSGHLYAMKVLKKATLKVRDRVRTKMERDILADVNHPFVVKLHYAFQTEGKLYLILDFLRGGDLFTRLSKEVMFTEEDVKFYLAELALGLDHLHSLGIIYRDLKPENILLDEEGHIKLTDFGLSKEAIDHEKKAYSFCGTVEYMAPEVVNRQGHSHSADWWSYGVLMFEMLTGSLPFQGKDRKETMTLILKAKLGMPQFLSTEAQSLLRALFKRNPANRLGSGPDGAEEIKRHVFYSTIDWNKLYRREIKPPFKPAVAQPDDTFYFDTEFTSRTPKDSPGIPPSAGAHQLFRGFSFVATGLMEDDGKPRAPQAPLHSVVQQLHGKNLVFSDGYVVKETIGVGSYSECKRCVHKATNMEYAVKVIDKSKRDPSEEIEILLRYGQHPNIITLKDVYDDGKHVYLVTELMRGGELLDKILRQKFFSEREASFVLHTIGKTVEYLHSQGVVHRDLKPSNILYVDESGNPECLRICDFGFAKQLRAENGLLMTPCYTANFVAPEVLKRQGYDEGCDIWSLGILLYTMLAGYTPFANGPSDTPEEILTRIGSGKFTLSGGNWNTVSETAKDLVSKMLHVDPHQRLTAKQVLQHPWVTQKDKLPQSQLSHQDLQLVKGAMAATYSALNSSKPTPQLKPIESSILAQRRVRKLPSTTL

MAPKAPK2 = MAPKAPK2 (Homo sapiens, UniProt P49137)
Sequence of MAPKAPK2 (P49137 whole entry): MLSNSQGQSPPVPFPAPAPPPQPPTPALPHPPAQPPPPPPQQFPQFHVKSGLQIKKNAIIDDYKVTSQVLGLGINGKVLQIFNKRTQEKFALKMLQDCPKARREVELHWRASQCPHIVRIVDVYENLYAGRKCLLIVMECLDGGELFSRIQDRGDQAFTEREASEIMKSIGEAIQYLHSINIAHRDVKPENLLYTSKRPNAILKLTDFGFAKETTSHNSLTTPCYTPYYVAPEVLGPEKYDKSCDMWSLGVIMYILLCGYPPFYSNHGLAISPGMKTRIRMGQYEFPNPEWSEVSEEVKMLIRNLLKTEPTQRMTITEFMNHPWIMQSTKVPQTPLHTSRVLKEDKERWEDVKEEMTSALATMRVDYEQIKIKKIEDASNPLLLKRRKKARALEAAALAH

PHKg2 = biological target: T3, PHKg2 (Homo sapiens, UniProt P15735)
T3 construct: kinase domain
T3 sequence (P15735 1-406): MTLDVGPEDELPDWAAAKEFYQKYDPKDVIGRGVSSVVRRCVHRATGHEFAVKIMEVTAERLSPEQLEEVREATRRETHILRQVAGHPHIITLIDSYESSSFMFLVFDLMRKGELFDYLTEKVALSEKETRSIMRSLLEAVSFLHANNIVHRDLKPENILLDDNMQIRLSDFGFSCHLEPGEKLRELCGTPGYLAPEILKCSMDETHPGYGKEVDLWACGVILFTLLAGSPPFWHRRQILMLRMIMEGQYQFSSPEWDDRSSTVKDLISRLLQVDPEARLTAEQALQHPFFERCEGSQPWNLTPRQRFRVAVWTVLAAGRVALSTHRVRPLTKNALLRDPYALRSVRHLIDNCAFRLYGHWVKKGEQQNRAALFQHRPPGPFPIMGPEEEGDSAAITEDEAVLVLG

DCAMKL1 = biological target: T4, DCAMKL1 (Homo sapiens, UniProt O15075)
T4 construct: gene DCLK1
T4 sequence (O15075 1-740): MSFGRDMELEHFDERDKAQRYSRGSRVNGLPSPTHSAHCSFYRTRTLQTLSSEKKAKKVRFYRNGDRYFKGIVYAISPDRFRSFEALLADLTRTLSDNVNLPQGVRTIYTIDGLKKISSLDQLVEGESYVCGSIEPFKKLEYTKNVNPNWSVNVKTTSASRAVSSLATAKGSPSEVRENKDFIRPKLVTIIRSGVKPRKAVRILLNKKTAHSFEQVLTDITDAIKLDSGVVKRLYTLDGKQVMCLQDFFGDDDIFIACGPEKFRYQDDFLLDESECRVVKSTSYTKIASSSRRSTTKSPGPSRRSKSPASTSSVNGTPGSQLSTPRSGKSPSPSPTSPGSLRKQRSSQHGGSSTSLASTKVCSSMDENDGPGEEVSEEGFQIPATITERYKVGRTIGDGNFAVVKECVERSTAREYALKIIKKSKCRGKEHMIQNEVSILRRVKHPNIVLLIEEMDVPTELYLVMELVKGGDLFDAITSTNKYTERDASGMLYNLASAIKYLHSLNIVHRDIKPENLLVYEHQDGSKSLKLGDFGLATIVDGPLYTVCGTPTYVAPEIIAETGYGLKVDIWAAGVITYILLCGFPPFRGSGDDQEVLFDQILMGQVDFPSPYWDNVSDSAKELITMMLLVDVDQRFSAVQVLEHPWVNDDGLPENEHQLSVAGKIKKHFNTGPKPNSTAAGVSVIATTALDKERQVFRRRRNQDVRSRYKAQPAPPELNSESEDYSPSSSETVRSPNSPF

CAMK4 = biological target: T5, CAMK4 (Homo sapiens, UniProt Q16566)
T5 sequence (Q16566 1-473): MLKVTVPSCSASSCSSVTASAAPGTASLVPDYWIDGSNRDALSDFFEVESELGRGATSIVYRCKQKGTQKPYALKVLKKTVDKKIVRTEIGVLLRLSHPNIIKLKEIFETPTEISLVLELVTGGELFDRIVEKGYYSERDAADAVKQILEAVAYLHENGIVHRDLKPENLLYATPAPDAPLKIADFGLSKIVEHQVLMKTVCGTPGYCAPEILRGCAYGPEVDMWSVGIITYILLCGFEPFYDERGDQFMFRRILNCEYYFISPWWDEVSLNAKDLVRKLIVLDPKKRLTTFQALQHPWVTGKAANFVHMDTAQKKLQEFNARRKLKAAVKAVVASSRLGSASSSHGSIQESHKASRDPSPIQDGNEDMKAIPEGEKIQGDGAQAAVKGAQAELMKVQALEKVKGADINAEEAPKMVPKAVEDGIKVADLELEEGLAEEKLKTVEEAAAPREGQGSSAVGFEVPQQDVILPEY

CLK1 = CLK1 (Homo sapiens, UniProt P49759)
Sequence of CLK1 (P49759 whole entry): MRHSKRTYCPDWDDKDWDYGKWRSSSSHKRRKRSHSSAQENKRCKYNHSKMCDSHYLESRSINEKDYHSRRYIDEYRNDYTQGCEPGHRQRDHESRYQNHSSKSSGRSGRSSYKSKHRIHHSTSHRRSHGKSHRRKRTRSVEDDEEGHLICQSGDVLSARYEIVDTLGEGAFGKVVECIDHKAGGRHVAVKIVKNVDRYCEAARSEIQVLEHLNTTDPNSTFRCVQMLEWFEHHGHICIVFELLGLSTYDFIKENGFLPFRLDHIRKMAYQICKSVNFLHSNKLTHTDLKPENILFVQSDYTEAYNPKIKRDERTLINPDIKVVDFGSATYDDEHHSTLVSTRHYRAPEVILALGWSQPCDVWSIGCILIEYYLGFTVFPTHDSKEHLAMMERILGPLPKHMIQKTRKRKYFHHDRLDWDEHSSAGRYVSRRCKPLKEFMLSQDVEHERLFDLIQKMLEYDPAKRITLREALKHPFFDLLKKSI

Sequence of NEK7 (Q8TDX7 whole entry): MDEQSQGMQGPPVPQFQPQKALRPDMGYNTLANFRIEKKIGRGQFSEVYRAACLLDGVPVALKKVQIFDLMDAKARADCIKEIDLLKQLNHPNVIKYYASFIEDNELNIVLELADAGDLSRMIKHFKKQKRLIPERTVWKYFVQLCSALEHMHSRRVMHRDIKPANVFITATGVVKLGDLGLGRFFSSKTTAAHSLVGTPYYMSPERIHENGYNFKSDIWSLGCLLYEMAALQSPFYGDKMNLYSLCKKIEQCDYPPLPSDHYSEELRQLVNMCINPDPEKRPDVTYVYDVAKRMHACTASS

CC(C)Nc1ccc2cnn(-c3cncc(-c4ccc(C(=O)O)cc4)n3)c2c1 [compound 2, 2]
ΔTm at 10 µM (NEK7; read-out: 2): 0 °C
ΔTm at 10 µM (p38d; read-out: 2): 0 °C
ΔTm at 10 µM (RSK1_b; read-out: 2): 4 °C
ΔTm at 10 µM (MAPKAPK2; read-out: 2): 0 °C
ΔTm at 10 µM (PHKg2; read-out: 2): 8 °C
ΔTm at 10 µM (DCAMKL1; read-out: 2): 4 °C
ΔTm at 10 µM (CAMK4; read-out: 2): 1 °C
ΔTm at 10 µM (CLK1; read-out: 2): 7 °C

COc1ccc(OC(C)C)cc1Nc1cncc(-c2ccc(C(=O)O)cc2)n1 [7c]
ΔTm at 10 µM (NEK7; read-out: 7c): -1 °C
ΔTm at 10 µM (p38d; read-out: 7c): 0 °C
ΔTm at 10 µM (RSK1_b; read-out: 7c): 1 °C
ΔTm at 10 µM (MAPKAPK2; read-out: 7c): 0 °C
ΔTm at 10 µM (PHKg2; read-out: 7c): 3 °C
ΔTm at 10 µM (DCAMKL1; read-out: 7c): 3 °C
ΔTm at 10 µM (CAMK4; read-out: 7c): -1 °C
ΔTm at 10 µM (CLK1; read-out: 7c): 7 °C

CC(C)Oc1ccc2ccn(-c3cncc(-c4ccc(C(=O)O)cc4)n3)c2c1 [6c]
ΔTm at 10 µM (NEK7; read-out: 6c): -1 °C
ΔTm at 10 µM (p38d; read-out: 6c): 1 °C
ΔTm at 10 µM (RSK1_b; read-out: 6c): 2 °C
ΔTm at 10 µM (MAPKAPK2; read-out: 6c): -1 °C
ΔTm at 10 µM (PHKg2; read-out: 6c): 5 °C
ΔTm at 10 µM (DCAMKL1; read-out: 6c): 3 °C
ΔTm at 10 µM (CAMK4; read-out: 6c): 0 °C
ΔTm at 10 µM (CLK1; read-out: 6c): 7 °C

— doi:10.1101/2023.12.04.569845, “Identification of 4-(6-((2-methoxyphenyl)amino)pyrazin-2-yl)benzoic acids as CSNK2A inhibitors with antiviral activity and improved selectivity over PIM3” (bioRxiv, 2023)
